How the values were obtained:
Format in all cases: cell-based
HT29 cells = assay: Cellular uptake of Pt by ICP-MS; settings: for Intracellular Concentration: HT29, 3 µM; for Intracellular/extracellular ratio: HT29, extracellular 3 µM
Procedure, shortened: (§1)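 HT29 and MDA-MB-231 cells (10^6/well) exposed to 3 µM Pt(II) or Pt(IV) complex for 0–30 h, washed with cold PBS, digested in 69% HNO3. Pt measured by ICP-MS with ^193Ir internal standard against external standards; given as nmol/10^6 cells or µM/cell, mean ±SEM of three experiments in triplicate.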

MDA−MB−231 cells = assay: Cellular uptake of Pt by ICP-MS; settings: for Intracellular Concentration: MDA−MB−231, 3 µM; for Intracellular/extracellular ratio: MDA−MB−231, extracellular 3 µM
Procedure, shortened: as §1

HT29 spheroids = assay: 3D bioprinted spheroid cytotoxicity (WST-1); settings: 72 h, mean ± SEM
MDA−MB−231 spheroids = assay: 3D bioprinted spheroid cytotoxicity (WST-1); settings: 72 h, mean ± SEM

With `Cc1cc2cccnc2c2ncccc12.N[C@H]1CCCC[C@@H]1N.O=[N+]([O-])[O-].O=[N+]([O-])[O-].[Pt+2]` [Pt^II5MESS, [Pt(5-methyl-1,10-phenanthroline)(1S,2S-diaminocyclohexane)](NO3)2] the “Intracellular Concentration” value (HT29 cells; 0 h) was 0.28 nmol/10^6 cells, the “Intracellular Concentration” value (HT29 cells; 0.5 h) was 0.79 nmol/10^6 cells and the “Intracellular Concentration” value (HT29 cells; 1 h) was 1.26 nmol/10^6 cells. The “Intracellular Concentration” value (HT29 cells; 3 h) was 2.75 nmol/10^6 cells, the “Intracellular Concentration” value (HT29 cells; 6 h) was 4.65 nmol/10^6 cells and the “Intracellular Concentration” value (HT29 cells; 12 h) was 19.18 nmol/10^6 cells. For the same molecule, the “Intracellular Concentration” value (HT29 cells; 24 h) was 21.18 nmol/10^6 cells, the “Intracellular Concentration” value (HT29 cells; 30 h) was 21.24 nmol/10^6 cells and the Intracellular/extracellular ratio (HT29 cells; 0 h) was 44.37. For the same molecule, the Intracellular/extracellular ratio (HT29 cells; 0.5 h) was 125.00, the Intracellular/extracellular ratio (HT29 cells; 1 h) was 197.63 and the Intracellular/extracellular ratio (HT29 cells; 3 h) was 431.44. The Intracellular/extracellular ratio (HT29 cells; 6 h) was 730.89, the Intracellular/extracellular ratio (HT29 cells; 12 h) was 3013.21 and the Intracellular/extracellular ratio (HT29 cells; 24 h) was 3327.94. For the same molecule, the Intracellular/extracellular ratio (HT29 cells; 30 h) was 3337.20, the “Intracellular Concentration” value (MDA−MB−231 cells; 0 h) was 0.37 nmol/10^6 cells and the “Intracellular Concentration” value (MDA−MB−231 cells; 0.5 h) was 0.44 nmol/10^6 cells. For the same molecule, the “Intracellular Concentration” value (MDA−MB−231 cells; 1 h) was 0.39 nmol/10^6 cells, the “Intracellular Concentration” value (MDA−MB−231 cells; 3 h) was 0.98 nmol/10^6 cells and the “Intracellular Concentration” value (MDA−MB−231 cells; 6 h) was 1.25 nmol/10^6 cells. For the same molecule, the “Intracellular Concentration” value (MDA−MB−231 cells; 12 h) was 4.82 nmol/10^6 cells, the “Intracellular Concentration” value (MDA−MB−231 cells; 24 h) was 5.64 nmol/10^6 cells and the “Intracellular Concentration” value (MDA−MB−231 cells; 30 h) was 7.63 nmol/10^6 cells. The Intracellular/extracellular ratio (MDA−MB−231 cells; 0 h) was 57.65, the Intracellular/extracellular ratio (MDA−MB−231 cells; 0.5 h) was 69.63 and the Intracellular/extracellular ratio (MDA−MB−231 cells; 1 h) was 61.30. It also gave an Intracellular/extracellular ratio (MDA−MB−231 cells; 3 h) of 154.59, an Intracellular/extracellular ratio (MDA−MB−231 cells; 6 h) of 196.09 and an Intracellular/extracellular ratio (MDA−MB−231 cells; 12 h) of 757.65. The Intracellular/extracellular ratio (MDA−MB−231 cells; 24 h) was 885.63, the Intracellular/extracellular ratio (MDA−MB−231 cells; 30 h) was 1199.77 and the IC50 (HT29 spheroids) was 2.91 ± 1.39 µM. The IC50 (MDA−MB−231 spheroids) was 4.08 ± 1.37 µM.

Reference: paper PMC11274883, “Anticancer Effect of Pt^[sequence], Pt^II5MESS, Pt^II56MESS and Their Platinum(IV)-Dihydroxy Derivatives against Triple-Negative Breast Cancer and Cisplatin-Resistant Colorectal Cancer” (Cancers, 2024)
